Data from patent publication US20020071842A1, “Soluble CD1 compositions and uses thereof” (priority 2000, published 2002).

Legend:
Test in all cases: Plate-bound mCD1d fusion protein hybridoma stimulation assay (IL-2 ELISA)
Type in all cases: cell-based, mouse
[1] = system: 24.8.A hybridoma; conditions: for IL-2 secretion: 24.8 A NKT hybridoma, plate-bound mCD1d-IgGFc2a fusion protein preincubated with lipid antigen
Source text: (§1) The CD1d-restricted T cell clones 24.7, 24.8, 24.9 (NKT cell) and 14S.6, 14S.7, 14S.10, and 14S.15 (diverse TCRs) were all derived from spleen of wild type C57BL/6 mice, as described previously (Behar, S. M. et al., J. Immunol., 162:161-7 (1999)). To generate T cell hybridomas, the activated T cells were fused to the aminopterin-sensitive BW5147 αβTCR^− thymoma cell line using PEG1500, and hybrids were selected in HAT medium (Life Technologies, Gaithersburg, Md.). Resulting TT hybridomas were tested for recognition of RMA-S cells transfected with mCD1D1 compared to untransfected RMA-S cells, as described below. […] The hybridomas are distinguished from the original T cell clones by the addition of a letter to their names. The KT/7, KT/12, KT/22, and KT/23 and Vβ/9 NKT cell hybridomas were derived from NK1.1^+ T cells enriched from spleen of C57BL/6 mice by depletion of CD8+ T cells, naive T cells, and B cells by mAbs (anti-B220, CD8, and CD62L, or anti-CD8α, CD8β, and Me114) bound to magnetic microbeads, or to plastic. The purified cells were stimulated either by the anti-CD3 KT3 mAb (KT/7, KT/12, KT/22, KT/23), or by an anti-Vβ8.2 mAb (Vβ/9), and addition of IL-2 or IL-2 and IL-7. After 4-5 days of culture the cells were fused with BW5147 thymoma cells. The VII68, VIII24, XVI9, and XV104 diverse TCR hybridomas were generated from CD4^+ T cells from class 110 mice, as described previously (Cardell, S. et al., J. Exp. Med., 182:993-1004 (1995)). The DN32D3 hybridoma was derived as described (Lantz, O., and Bendelac, A., J. Exp. Med., 180:1097-106 (1994).
(§2) To test for recognition of the mCD1d fusion protein and purified or synthetic antigens, 96 well protein A coated plates (Pierce Chemical Company) were incubated with 400-600 ng/well of the fusion protein or a negative control IgG2a antibody, RPC5.4 or UPC10, in PBS, at pH 7.2. Lipid antigens were diluted into PBS and added where specified at the indicated molar ratio of antigen to fusion protein, (when not specified the ratio was 40:1). Protein A plates containing the fusion protein and antigen were incubated 24-48 hr at 37° C., then washed three times with 200 μl/well sterile PBS, pH 7.2, and two times with 200 μl/well sterile culture medium (containing RPMI supplemented with L-glutamine and penicillin/streptomycin, Life Technologies, Gaithersburg, Md., and 10% bovine calf serum, Hyclone Laboratories, Logan, Utah). For assays in which the PI was phospholipase treated, it was first diluted into 0.01M Tris, 0.15M NaCl, pH 7.5, containing 0.25 U PI-specific phospholipase C or 0.5 U phospholipase D (Sigma, St Louis, Mo.), and incubated 30 minutes at room temperature, then added to the protein A plates as described above. For assays in which the pH was varied during antigen incubation with the fusion protein, the fusion protein and α-GalCer were diluted into a 20 mM citrate/phosphate buffer of the specified pH, which contained 0.15 M NaCl, and after incubation, the samples were neutralized by addition of 1M Tris, pH 7.5. Hybridoma cells were added to fusion protein/antigen treated plates at a concentration of 1×10^5 cells/well, in a total volume of 150 μl/well. Assays were performed using 2-6 replicate wells. In some assays, an anti-mCD1d blocking antibody (19G11) was included at a final concentration of 20 μg/ml. The plates were incubated at 37° C. for 16-20 hr, and culture supernatants were withdrawn for analysis. Each experiment was performed at least three times.
(§3) IL-2 secreted in the hybridoma stimulation assays was quantitated in a double antibody sandwich ELISA, by comparison to a standard curve of purified murine IL-2 (Pharmingen, San Diego, Calif.). Hybridoma plate stimulation supernatants (used either neat or diluted) and serially diluted IL-2 standards were added to 96 well ELISA plates coated with a rat anti-mouse IL-2 capture antibody (Pharmingen).

[2] = system: 14S.10.C hybridoma; conditions: 14S.10 C diverse TCR hybridoma; plate-bound mCD1d-IgGFc2a fusion protein preincubated with lipid antigen
Source text: as §1, §2
as §3, with “(Pharmingen). […]” for “(Pharmingen).”

[3] = system: 14S.15.A hybridoma; conditions: 14S.15.A diverse TCR hybridoma; plate-bound mCD1d-IgGFc2a fusion protein preincubated with lipid antigen
Source text: as §1, §2
as §3, with “(Pharmingen). […]” for “(Pharmingen).”

[4] = system: 14S.6.A hybridoma; conditions: 14S.6.A diverse TCR hybridoma; plate-bound mCD1d-IgGFc2a fusion protein preincubated with lipid antigen
Source text: as §1, §2
as §3, with “(Pharmingen). […]” for “(Pharmingen).”

[5] = system: 14S.7.N hybridoma; conditions: 14S.7.N diverse TCR hybridoma; plate-bound mCD1d-IgGFc2a fusion protein preincubated with lipid antigen
Source text: as §1, §2
as §3, with “(Pharmingen). […]” for “(Pharmingen).”

[6] = system: 24.7.C hybridoma; conditions: 24 7.C NKT hybridoma; plate-bound mCD1d-IgGFc2a fusion protein preincubated with lipid antigen
Source text: as §1, §2
as §3, with “(Pharmingen). […]” for “(Pharmingen).”

[7] = system: 24.9.E hybridoma; conditions: for IL-2 secretion: 24.9 E NKT hybridoma, plate-bound mCD1d-IgGFc2a fusion protein preincubated with lipid antigen
Source text: as §1, §2
as §3, with “(Pharmingen). […]” for “(Pharmingen).”

[8] = system: DN32D3 hybridoma; conditions: DN32D3 NKT hybridoma; plate-bound mCD1d-IgGFc2a fusion protein preincubated with lipid antigen
Source text: as §1, §2
as §3, with “(Pharmingen). […]” for “(Pharmingen).”

[9] = system: KT/12 hybridoma; conditions: KT/12 NKT hybridoma; plate-bound mCD1d-IgGFc2a fusion protein preincubated with lipid antigen
Source text: as §1, §2
as §3, with “(Pharmingen). […]” for “(Pharmingen).”

[10] = system: KT/22 hybridoma; conditions: KT/22 NKT hybridoma; plate-bound mCD1d-IgGFc2a fusion protein preincubated with lipid antigen
Source text: as §1, §2
as §3, with “(Pharmingen). […]” for “(Pharmingen).”

[11] = system: KT/23 hybridoma; conditions: KT/23 NKT hybridoma; plate-bound mCD1d-IgGFc2a fusion protein preincubated with lipid antigen
Source text: as §1, §2
as §3, with “(Pharmingen). […]” for “(Pharmingen).”

[12] = system: KT/7 hybridoma; conditions: KT/7 NKT hybridoma; plate-bound mCD1d-IgGFc2a fusion protein preincubated with lipid antigen
Source text: as §1, §2
as §3, with “(Pharmingen). […]” for “(Pharmingen).”

[13] = system: VII68 hybridoma; conditions: VII68 diverse TCR hybridoma; plate-bound mCD1d-IgGFc2a fusion protein preincubated with lipid antigen
Source text: as §1, §2
as §3, with “(Pharmingen). […]” for “(Pharmingen).”

[14] = system: VIII24 hybridoma; conditions: VIII24 diverse TCR hybridoma; plate-bound mCD1d-IgGFc2a fusion protein preincubated with lipid antigen
Source text: as §1, §2
as §3, with “(Pharmingen). […]” for “(Pharmingen).”

[15] = system: Vβ/9 hybridoma; conditions: Vβ/9 NKT hybridoma; plate-bound mCD1d-IgGFc2a fusion protein preincubated with lipid antigen
Source text: as §1, §2
as §3, with “(Pharmingen). […]” for “(Pharmingen).”

[16] = system: XV104 hybridoma; conditions: XV104 diverse TCR hybridoma; plate-bound mCD1d-IgGFc2a fusion protein preincubated with lipid antigen
Source text: as §1, §2
as §3, with “(Pharmingen). […]” for “(Pharmingen).”

[17] = system: XV19 hybridoma; conditions: XV19 diverse TCR hybridoma; plate-bound mCD1d-IgGFc2a fusion protein preincubated with lipid antigen
Source text: as §1, §2
as §3, with “(Pharmingen). […]” for “(Pharmingen).”

Row | Substance | IL-2 secretion [1] | IL-2 secretion [2] | IL-2 secretion [3] | IL-2 secretion [4] | IL-2 secretion [5] | IL-2 secretion [6] | IL-2 response to mCD1d fusion protein pre-treated with purified or synthetic lipid ([7]; 24.9.E hybridoma) | IL-2 secretion [7] | IL-2 secretion [8] | IL-2 secretion [9] | IL-2 secretion [10] | IL-2 secretion [11] | IL-2 secretion [12] | IL-2 secretion [13] | IL-2 secretion [14] | IL-2 secretion [15] | IL-2 secretion [16] | IL-2 secretion [17] | IL-2 response to mCD1d fusion protein pre-treated with purified or synthetic lipid ([1]; 24.8.A hybridoma, compared to untreated or buffer treated fusion protein)
1 | gangliotriosyl ceramide [aGM2] | + (“+” indicates 50-250 pg/ml) | 0 (A “0” indicates a mean of less than 50 pg/ml IL-2 was secreted) | 0 (A “0” indicates a mean of less than 50 pg/ml IL-2 was secreted) | 0 (A “0” indicates a mean of less than 50 pg/ml IL-2 was secreted) | 0 (A “0” indicates a mean of less than 50 pg/ml IL-2 was secreted) | 0 (A “0” indicates a mean of less than 50 pg/ml IL-2 was secreted) | not recognized | 0 (A “0” indicates a mean of less than 50 pg/ml IL-2 was secreted) | 0 (A “0” indicates a mean of less than 50 pg/ml IL-2 was secreted) | 0 (A “0” indicates a mean of less than 50 pg/ml IL-2 was secreted) | 0 (A “0” indicates a mean of less than 50 pg/ml IL-2 was secreted) | 0 (A “0” indicates a mean of less than 50 pg/ml IL-2 was secreted) | 0 (A “0” indicates a mean of less than 50 pg/ml IL-2 was secreted) | 0 (A “0” indicates a mean of less than 50 pg/ml IL-2 was secreted) | 0 (A “0” indicates a mean of less than 50 pg/ml IL-2 was secreted) | 0 (A “0” indicates a mean of less than 50 pg/ml IL-2 was secreted) | 0 (A “0” indicates a mean of less than 50 pg/ml IL-2 was secreted) | 0 (A “0” indicates a mean of less than 50 pg/ml IL-2 was secreted) | –
2 | phosphatidylserine [PS] | + (“+” indicates 50-250 pg/ml) | 0 (A “0” indicates a mean of less than 50 pg/ml IL-2 was secreted) | 0 (A “0” indicates a mean of less than 50 pg/ml IL-2 was secreted) | 0 (A “0” indicates a mean of less than 50 pg/ml IL-2 was secreted) | 0 (A “0” indicates a mean of less than 50 pg/ml IL-2 was secreted) | 0 (A “0” indicates a mean of less than 50 pg/ml IL-2 was secreted) | – | 0 (A “0” indicates a mean of less than 50 pg/ml IL-2 was secreted) | 0 (A “0” indicates a mean of less than 50 pg/ml IL-2 was secreted) | 0 (A “0” indicates a mean of less than 50 pg/ml IL-2 was secreted) | 0 (A “0” indicates a mean of less than 50 pg/ml IL-2 was secreted) | 0 (A “0” indicates a mean of less than 50 pg/ml IL-2 was secreted) | 0 (A “0” indicates a mean of less than 50 pg/ml IL-2 was secreted) | 0 (A “0” indicates a mean of less than 50 pg/ml IL-2 was secreted) | 0 (A “0” indicates a mean of less than 50 pg/ml IL-2 was secreted) | 0 (A “0” indicates a mean of less than 50 pg/ml IL-2 was secreted) | 0 (A “0” indicates a mean of less than 50 pg/ml IL-2 was secreted) | 0 (A “0” indicates a mean of less than 50 pg/ml IL-2 was secreted) | did not reproducibly significantly enhance reactivity
3 | sphingomyelin | + (“+” indicates 50-250 pg/ml) | 0 (A “0” indicates a mean of less than 50 pg/ml IL-2 was secreted) | + (“+” indicates 50-250 pg/ml) | 0 (A “0” indicates a mean of less than 50 pg/ml IL-2 was secreted) | 0 (A “0” indicates a mean of less than 50 pg/ml IL-2 was secreted) | 0 (A “0” indicates a mean of less than 50 pg/ml IL-2 was secreted) | – | 0 (A “0” indicates a mean of less than 50 pg/ml IL-2 was secreted) | 0 (A “0” indicates a mean of less than 50 pg/ml IL-2 was secreted) | 0 (A “0” indicates a mean of less than 50 pg/ml IL-2 was secreted) | 0 (A “0” indicates a mean of less than 50 pg/ml IL-2 was secreted) | 0 (A “0” indicates a mean of less than 50 pg/ml IL-2 was secreted) | 0 (A “0” indicates a mean of less than 50 pg/ml IL-2 was secreted) | 0 (A “0” indicates a mean of less than 50 pg/ml IL-2 was secreted) | 0 (A “0” indicates a mean of less than 50 pg/ml IL-2 was secreted) | 0 (A “0” indicates a mean of less than 50 pg/ml IL-2 was secreted) | 0 (A “0” indicates a mean of less than 50 pg/ml IL-2 was secreted) | 0 (A “0” indicates a mean of less than 50 pg/ml IL-2 was secreted) | –
